This is an account of results in US20030022794A1, “Novel quaternary salts and their use in agricultural formulations” (priority 1997, published 2003).

What all share (assay type): physicochemical
The nature of series [1]: storage stability on aging, decomposition of the sulfonylurea measured by HPLC. The protocol:
To 21.57 g 2-[[[[(4,6-dimethoxy-2-pyrimidinyl)amino]carbonyl]-amino]sulfonyl]-N,N-dimethyl-3-pyridinecarboxamide and 50 mL 1.0 N NaOH in 1400 mL methylene chloride was incrementally added 22.37 g of diisobutylphenoxy ethoxyethyl dimethylbenzyl ammonium chloride (Hyamine 1622, commercially available from Lonza), with several small methylene chloride washes to facilitate transfer. The reaction medium was filtered through a bed of molecular sieves to remove mineral salts and water. Methylene chloride was stripped to recover the white powder. Upon aging for 1 week at 54 C., 9% relative decomposition of the sulfonylurea resulted as measured by HPLC.
Into 7.8 g of epoxidized soybean oil (ESBO) was added with stirring: 1.18 g methyl 3-[[[[(4-methoxy-6-methyl-1,3,5-triazin-2-yl)amino]carbonyl]amino]sulfonyl]-2-thiophenecarboxylate tech (98.1%), 1.31 g of anhydrous diisobutylphenoxy ethoxyethyl dimethylbenzyl ammonium chloride […] (Hyamine 1622, available from Lonza), 0.11 g Ca(OH)2, and 0.03 g calcium acetate. The mixture was aged 3 weeks at 45° C. giving 0% relative decomposition of the sulfonylurea as measured by HPLC.
A solution on 15 g of methyl 2-[[[[(4-methoxy-6-methyl-1,3,5-triazin-2-yl)methylamino]carbonyl]amino]sulfonyl]benzoate tech (95.7%) and 18 g of Na2CO3 in 300 g of CH2Cl2 was treated with 1.5 g of NaOH and stirred 2 h. 8.65 g of benzyl triethyl ammonium chloride was added to the suspension and the mixture stirred overnight. The suspension was filtered and the filtrate stripped of solvent on a rotary evaporator yielding the corresponding sulfonylurea quaternary salt as a viscous yellow oil (15.7 g) using 1 g of the oil, a 20% solution of the quaternary salt was made in triethyl phosphate. Upon aging for 1 week at 54° C., 1% relative decomposition of the sulfonylurea resulted as indicated by HPLC.
A quaternary salt sulfonylurea was prepared using the procedure of Example 3 with 20 g methyl 2-[[[[(4-methoxy-6-methyl-1,3,5-triazin-2-yl)methylamino]carbonyl]-amino]sulfonyl]benzoate, 30 g Na2CO3, 400 g CH2Cl2, 2 g NaOH and 11.5 g benzyl triethyl ammonium chloride. One gram of the resulting orange viscous oil was made up as a 20% solution in triethyl phosphate. Upon aging for 1 week at 54° C., 2% relative decomposition of the sulfonylurea resulted as indicated by HPLC.
(§1) Tetradodecyl ammonium bromide was dissolved in 5 mL of CH2Cl2 and stirred with 3.3 mL of 1 N NaOH. To this was added 1.27 g of N-[[(4,6-dimethoxypyrimidine-2-yl)amino]carbonyl]-1-methyl-4-(2-methyl-2H-tetrazol-5-yl)-H-pyrazole-5-sulfonamide (97.8%) dissolved in 5 mL of CH2Cl2 and stirring continued for 5 min at 25° C. The organic phase was separated, washed with water, dried and the solvent removed tinder vacuum in a rotary evaporator at a maximum of 50° C. The resulting viscous, colorless oil gave an assay of 35% of the corresponding sulfonylurea quaternary salt (vs. 38% theory) using HPLC. This oil was more than-50% soluble in epoxidized soybean oil, methyl caprylate/caprate, and cottonseed oil. 50% solutions of the resultant sulfonylurea quaternary salt in these three solvents were aged 1 week at 54° C., giving 20-45% relative degradation by HPLC analysis.
In a vial was vortexed the following: 0.214 g methyl 2-[[[[[(4,6-dimethoxy-2-pyrimidinyl)amino]carbonyl]amino]sulfonyl]methyl]benzoate (98.3%), 0.192 g of a 25% aqueous solution of tetramethyl ammonium hydroxide, and 4.32 g of water to produce the sulfonylurea quaternary salt. Upon aging the solution at 54° C. for one week, 52% degradation of the sulfonylurea resulted as measured by HPLC.
(§2) Deionized water (5 g) was saturated with 2-[[[[(4,6-dimethoxy-2-pyrimidinyl)amino]carbonyl]amino]sulfonyl]-N,N-dimethyl-3-pyridinencarboxamide tech (500 ppm) and aged at 25° C. for 30 days.

Series [2] can be described thus: solubility in organic solvents (epoxidized soybean oil, methyl caprylate/caprate, cottonseed oil). The protocol: as §1
Series [3] in a line: saturation of deionized water. The following applies: tech material. As to the method: as §2
Setting [4] is: 20% solution in triethyl phosphate, aging 1 week at 54° C., HPLC.

In the case of “Quaternary salt of 2-[[[[(4.6-Dimethoxy-2-Pyrimidinyl)amino]carbonyl]amino]sulfonyl]-N,N-Dimethyl-3-Pyridinecarboxamide [Example 1]”, the “relative decomposition of the sulfonylurea” value (“relative decomposition” below) in series [1] (isolated white powder, aging 1 week at 54 C, HPLC) came out at 9%.

For “In situ Quaternary Salt of Methyl 3-[[[[(4-Methoxy-6-Methyl-1,3,5-Triazin-2-yl)Amino]carbonyl]amino]sulfonyl]-2-Thiophenecarboxylate [Example 2]”, the “relative decomposition” value in series [1] (in situ mixture in epoxidized soybean oil with Ca(OH)2 and calcium acetate, aged 3 weeks at 45° C., HPLC) turned out to be 0%.

Turning to `COc1cc(OC)nc(NC(=O)NS(=O)(=O)c2c(-c3nnn(C)n3)cnn2C)n1` [N-[[(4,6-dimethoxypyrimidine-2-yl)amino]carbonyl]-1-methyl-4-(2-methyl-2H-tetrazol-5-yl)-1H-pyrazole-5-sulfonamide], the “solubility (in words)” value in series [2] (in epoxidized soybean oil, methyl caprylate/caprate, and cottonseed oil) is “practically insoluble”.

As to `COC(=O)c1ccccc1CS(=O)(=O)[N-]C(=O)Nc1nc(OC)cc(OC)n1.C[N+](C)(C)C` [B], the “degradation of the sulfonylurea” value in series [1] (aqueous solution, aging at 54° C. for one week, HPLC) worked out at 52%.

Turning to “Quaternary Salt of Methyl 2-[[[[(4-Methoxy-6-Methyl-1,3,5-Triazin-2-yl)Methylamino]carbonyl]amino]sulfonyl]benzoate [Example 4]”, the “relative decomposition” value in series [1] (setting [4]) is 2%.

In the case of `CCCCCCCCCCCC[N+](CCCCCCCCCCCC)(CCCCCCCCCCCC)CCCCCCCCCCCC.COc1cc(OC)nc(NC(=O)[N-]S(=O)(=O)c2c(-c3nnn(C)n3)cnn2C)n1` [A], the relative degradation in series [1] is 20-45%. Also, the solubility in series [2] is greater than 50%.

With “Quaternary Salt of Methyl 2-[[[[(4-Methoxy-6-Methyl-1,3,5-Triazin-0.2-yl)Methylamino]carbonyl]amino]sulfonyl]benzoate [Example 3]”, the “relative decomposition” value in series [1] (setting [4]) is listed as 1%.

For the compound `COc1cc(OC)nc(NC(=O)NS(=O)(=O)c2ncccc2C(=O)N(C)C)n1` [C, 2-[[[[(4,6-dimethoxy-2-pyrimidinyl)amino]carbonyl]amino]sulfonyl]-N,N-dimethyl-3-pyridinencarboxamide], the “concentration at saturation in deionized water” value in series [3] is 500 ppm.
